Test results published in US20230147196A1, “MITOCHONDRIAL DYSFUNCTION IMPROVING AGENT” (priority 2020, published 2023).

Key:
[1] = tested on: hippocampus-derived neurons; experiment: Neuronopathy model: single neuron-astrocyte coculture treated with Aβ peptide (Aβ25-35), Sholl analysis of dendrites and axons; type: cell-based, ICR mouse; conditions: for neuropathy of nerve axons (branches and elongation, Tau antibody staining, Sholl analysis) / neuropathy of nerve dendrites (branches and elongation, MAP2 antibody staining, Sholl analysis): Aβ25-35 1 μM, test compound 0.3 μM, exposed for three days, FIGS. 2 and 3; for neurotoxicity caused by Aβ: primary neurons, low concentration of 0.3 μM, summary statement
Experimental: In a neuronopathy model due to Aβ peptide of which a single neuron-astrocyte coculture sample is treated with Aβ peptide, an improvement effect in neurodegeneration of a MKH derivative was evaluated. Since mitochondrial affinity of the derivative and reconvertibility to MKH are expected affect the MKH delivery by an MKH derivative, a cationic derivative (MKH-DMG) presumed to have a high affinity, an anionic derivative (MKH-SUC) having a high intracellular reconversionability, and an oxidant of MKH (MK-4) used in clinical study were evaluated (Chem. 7).
After culturing (2 weeks) astrocytes isolated from the cerebral cortex of 0- to 1-day-old ICR mouse, regions were divided in dots on a slide glass and cultured. After culturing for one more week, hippocampus-derived neurons of 0- to 1-day-old ICR mouse were seeded and cocultured. From day 1 of seeding neuron, Aβ25-35 (1 μM) and a test compound (0.3 μM) were exposed for three days, and morphological change of neurons was observed. Dendrites (MAP2 antibody) and axons (Tau antibody) of nerves were stained by immunostaining and analyzed. Dendrites and axons were evaluated for changes in branches and elongation of dendrites and axons by Sholl analysis method.

neural cells = experiment: Mitochondrial dysfunction caused by Complex I inhibitor rotenone in neural cells; type: cell-based; conditions: summary statement on the respiratory chain inhibitor tests in neural cells
Experimental: Effects of an MKH derivative and a PKH derivative to mitochondrial dysfunctions caused by Complex I inhibitor rotenone ([…] Complex II inhibitor (3-nitro propionic acid (3-NP)), Complex III inhibitor (antimycin A), and a depolarizing agent (carbonylcyanide-m-chlorophenylhydrazone, CCCP) in neural cells were evaluated. The effects were evaluated with cell death (viability measurement with cell titer blue), inhibition of ATP production (ATP measurement with cell titer glo), and membrane potential reduction (JC-1 staining: depolarization (green), hyperpolarization (red)).

Compound | neuropathy of nerve axons (branches and elongation, Tau antibody staining, Sholl analysis) [1] | neuropathy of nerve dendrites (branches and elongation, MAP2 antibody staining, Sholl analysis) [1] | neurotoxicity caused by Aβ [1] | mitochondrial function (respiratory chain) damage / mitochondrial dysfunction (membrane potential reduced mitochondria) (neural cells)
CC(C)=CCC/C(C)=C/CC/C(C)=C/CC/C(C)=C/Cc1c(C)c(OC(=O)CN(C)C)c2ccccc2c1OC(=O)CN(C)C [MKH-DMG] | significantly improved | significantly improved | can improve | can improve
CC(C)=CCC/C(C)=C/CC/C(C)=C/CC/C(C)=C/Cc1c(C)c(OC(=O)CCC(=O)O)c2ccccc2c1OC(=O)CCC(=O)O [MKH-SUC] | significantly improved | significantly improved | can improve | can improve
Menaquinone-4 [MK-4, reference compound] | No improvement effect | No improvement effect | – | –
